What was measured:
[1] = cited from earlier work
MM.1S xenograft = test: MM xenograft mouse model, single agent, 18 days; type: in vivo, NOD/SCID mice; settings: for body weight versus control: 18 days treatment
Experimental: (§1) Tumor size was measured every other day using calipers, and tumor volume was calculated with the formula: V = 0.5 (a × b^2), where a is the long diameter of the tumor and b is the short diameter of the tumor. Mice were killed when the tumor reached 2 cm^3 or was ulcerated. Tumor growth was evaluated from the first day of treatment until the end of experiment.

RPMI-8226 xenograft = test: MM xenograft mouse model, single agent, 18 days; type: in vivo, NOD/SCID mice; settings: for body weight versus control: 18 days treatment
Experimental: as §1

hERG = hERG (Homo sapiens, UniProt Q12809); settings: cited from earlier work
SIRT1 = SIRT1 (Homo sapiens, UniProt Q96EB6); test: non-HDAC enzyme inhibition selectivity; type: biochemical; settings: read-out: Inhibition rate (%) (200 μM)
SIRT2 = SIRT2 (Homo sapiens, UniProt Q8IXJ6); test: non-HDAC enzyme inhibition selectivity; type: biochemical; settings: read-out: Inhibition rate (%) (200 μM)
SIRT3 = SIRT3 (Homo sapiens, UniProt Q9NTG7); test: non-HDAC enzyme inhibition selectivity; type: biochemical; settings: read-out: Inhibition rate (%) (200 μM)
MM.1S tumor tissues = test: PD analysis of acetylation in tumor tissue by Western blotting; type: in vivo, NOD/SCID mice; settings: 75 mg·kg^-1·d^-1 bid, 1 h after last dose
Experimental: For PD analysis, mice were killed 1 h after treatment, tumor tissues were collected for WB analysis of acetylated α-tubulin and acetylated histone H3 levels, as before indicated.

[2] = parameters: method as in PMID 19356036; settings: rat and dog; cited from earlier work
HDAC5 = settings: cited from earlier work
MMP12 = MMP12 (Homo sapiens, UniProt P39900); test: non-HDAC enzyme inhibition selectivity; settings: read-out: Inhibition rate (%) (200 μM)
DPP4 = DPP4 (Homo sapiens, UniProt P27487); test: non-HDAC enzyme inhibition selectivity; settings: read-out: Inhibition rate (%) (200 μM)
Caspase3 = target: T1, Caspase3 (Homo sapiens, UniProt P42574); test: non-HDAC enzyme inhibition selectivity; settings: read-out: Inhibition rate (%) (200 μM)
T1 sequence (P42574 29-175 limits assumed): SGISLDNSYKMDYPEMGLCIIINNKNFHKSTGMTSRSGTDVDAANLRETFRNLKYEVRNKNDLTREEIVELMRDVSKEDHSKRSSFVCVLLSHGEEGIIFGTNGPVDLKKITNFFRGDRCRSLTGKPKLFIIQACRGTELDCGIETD
T1 sequence (P42574 176-277 limits assumed): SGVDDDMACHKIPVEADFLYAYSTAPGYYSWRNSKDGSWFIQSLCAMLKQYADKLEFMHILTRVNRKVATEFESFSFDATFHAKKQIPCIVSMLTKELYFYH

PKCepsilon = target: T2, PKCepsilon (Homo sapiens, UniProt Q02156); test: non-HDAC enzyme inhibition selectivity; settings: read-out: Inhibition rate (%) (200 μM)
T2 sequence (Q02156 1-737): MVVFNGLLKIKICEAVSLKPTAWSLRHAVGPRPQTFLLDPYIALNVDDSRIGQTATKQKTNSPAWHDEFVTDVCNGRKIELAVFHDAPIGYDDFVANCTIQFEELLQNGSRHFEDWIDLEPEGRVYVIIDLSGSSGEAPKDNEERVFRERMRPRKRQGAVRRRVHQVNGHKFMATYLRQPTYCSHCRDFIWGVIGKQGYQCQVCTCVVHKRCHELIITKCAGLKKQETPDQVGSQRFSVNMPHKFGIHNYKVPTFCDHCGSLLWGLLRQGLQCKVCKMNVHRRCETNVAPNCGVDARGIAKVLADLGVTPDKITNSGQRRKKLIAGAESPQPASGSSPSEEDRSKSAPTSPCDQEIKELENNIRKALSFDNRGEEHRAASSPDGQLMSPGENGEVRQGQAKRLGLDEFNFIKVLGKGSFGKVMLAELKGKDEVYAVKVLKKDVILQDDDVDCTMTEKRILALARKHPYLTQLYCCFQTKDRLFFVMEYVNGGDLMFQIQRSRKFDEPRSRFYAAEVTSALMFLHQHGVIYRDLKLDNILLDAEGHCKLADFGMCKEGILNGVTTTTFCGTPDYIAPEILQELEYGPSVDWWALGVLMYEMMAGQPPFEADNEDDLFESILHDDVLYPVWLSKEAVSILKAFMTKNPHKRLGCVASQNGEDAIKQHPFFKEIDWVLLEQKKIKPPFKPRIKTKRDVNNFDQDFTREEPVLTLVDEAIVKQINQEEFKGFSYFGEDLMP

AuroraA = AuroraA (Homo sapiens, UniProt O14965); test: non-HDAC enzyme inhibition selectivity; settings: read-out: Inhibition rate (%) (200 μM)
Braf = Braf (Homo sapiens, UniProt P15056); test: non-HDAC enzyme inhibition selectivity; settings: read-out: Inhibition rate (%) (200 μM)
Syk = Syk (Homo sapiens, UniProt P43405); test: non-HDAC enzyme inhibition selectivity; settings: read-out: Inhibition rate (%) (200 μM)
PTP1B = target: T3, PTP1B (Homo sapiens, UniProt P18031); test: non-HDAC enzyme inhibition selectivity; settings: read-out: Inhibition rate (%) (200 μM)
T3 sequence (P18031 1-435): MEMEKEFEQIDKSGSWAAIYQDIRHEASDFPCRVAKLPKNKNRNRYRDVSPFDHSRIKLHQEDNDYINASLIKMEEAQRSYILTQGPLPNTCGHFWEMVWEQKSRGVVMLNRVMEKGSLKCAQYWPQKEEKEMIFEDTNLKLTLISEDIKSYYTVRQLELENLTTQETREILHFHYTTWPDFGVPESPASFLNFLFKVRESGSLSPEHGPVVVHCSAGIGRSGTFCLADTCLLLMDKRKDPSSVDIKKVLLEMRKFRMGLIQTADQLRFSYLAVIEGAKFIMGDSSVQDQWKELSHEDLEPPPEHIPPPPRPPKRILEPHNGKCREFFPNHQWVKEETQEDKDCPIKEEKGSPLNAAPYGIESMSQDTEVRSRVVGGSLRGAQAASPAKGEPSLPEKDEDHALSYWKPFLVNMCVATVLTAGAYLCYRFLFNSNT

[3] = 75 mg·kg^-1·d^-1 bid, oral, 18 days

Chain of hERG (Q12809 whole entry): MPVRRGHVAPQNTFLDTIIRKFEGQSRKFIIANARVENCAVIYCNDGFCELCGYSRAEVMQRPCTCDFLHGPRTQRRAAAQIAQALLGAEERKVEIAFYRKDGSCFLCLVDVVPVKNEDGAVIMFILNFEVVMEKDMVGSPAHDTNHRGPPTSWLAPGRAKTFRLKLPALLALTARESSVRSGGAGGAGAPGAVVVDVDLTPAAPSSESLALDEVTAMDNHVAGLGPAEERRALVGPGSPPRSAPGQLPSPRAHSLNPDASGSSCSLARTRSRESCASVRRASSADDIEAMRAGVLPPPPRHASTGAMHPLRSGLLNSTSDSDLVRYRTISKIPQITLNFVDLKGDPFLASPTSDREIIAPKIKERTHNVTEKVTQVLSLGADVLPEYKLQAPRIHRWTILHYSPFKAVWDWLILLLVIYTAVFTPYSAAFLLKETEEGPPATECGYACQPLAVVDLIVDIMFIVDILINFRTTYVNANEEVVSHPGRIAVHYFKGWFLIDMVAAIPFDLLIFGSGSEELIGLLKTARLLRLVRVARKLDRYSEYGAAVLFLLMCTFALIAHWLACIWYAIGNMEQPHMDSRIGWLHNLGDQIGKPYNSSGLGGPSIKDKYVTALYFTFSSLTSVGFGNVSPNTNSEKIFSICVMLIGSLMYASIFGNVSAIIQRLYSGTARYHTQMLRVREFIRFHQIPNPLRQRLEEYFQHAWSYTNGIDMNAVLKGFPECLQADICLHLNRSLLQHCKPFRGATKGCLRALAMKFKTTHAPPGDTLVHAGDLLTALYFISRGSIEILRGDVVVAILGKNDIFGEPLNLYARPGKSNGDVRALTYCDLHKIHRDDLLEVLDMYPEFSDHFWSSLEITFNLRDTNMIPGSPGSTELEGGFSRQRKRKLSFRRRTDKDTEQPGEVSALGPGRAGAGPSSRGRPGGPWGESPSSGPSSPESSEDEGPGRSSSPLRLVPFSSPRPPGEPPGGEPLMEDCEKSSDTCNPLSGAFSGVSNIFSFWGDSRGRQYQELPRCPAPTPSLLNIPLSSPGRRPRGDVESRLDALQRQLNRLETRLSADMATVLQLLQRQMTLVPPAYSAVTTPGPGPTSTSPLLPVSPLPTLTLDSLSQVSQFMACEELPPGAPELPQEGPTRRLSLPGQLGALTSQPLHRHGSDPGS
Chain of AuroraA (O14965 whole entry): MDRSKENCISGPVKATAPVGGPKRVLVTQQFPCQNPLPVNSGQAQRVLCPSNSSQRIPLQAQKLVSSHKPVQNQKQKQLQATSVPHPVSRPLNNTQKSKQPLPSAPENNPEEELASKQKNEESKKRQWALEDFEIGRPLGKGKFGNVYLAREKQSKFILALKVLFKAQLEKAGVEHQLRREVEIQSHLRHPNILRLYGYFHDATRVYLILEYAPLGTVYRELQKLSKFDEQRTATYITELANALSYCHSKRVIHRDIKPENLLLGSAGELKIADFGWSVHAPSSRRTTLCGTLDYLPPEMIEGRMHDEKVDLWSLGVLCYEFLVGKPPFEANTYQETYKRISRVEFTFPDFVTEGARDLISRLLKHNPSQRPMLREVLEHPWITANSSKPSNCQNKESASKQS
Chain of SIRT1 (Q96EB6 whole entry, species assumed): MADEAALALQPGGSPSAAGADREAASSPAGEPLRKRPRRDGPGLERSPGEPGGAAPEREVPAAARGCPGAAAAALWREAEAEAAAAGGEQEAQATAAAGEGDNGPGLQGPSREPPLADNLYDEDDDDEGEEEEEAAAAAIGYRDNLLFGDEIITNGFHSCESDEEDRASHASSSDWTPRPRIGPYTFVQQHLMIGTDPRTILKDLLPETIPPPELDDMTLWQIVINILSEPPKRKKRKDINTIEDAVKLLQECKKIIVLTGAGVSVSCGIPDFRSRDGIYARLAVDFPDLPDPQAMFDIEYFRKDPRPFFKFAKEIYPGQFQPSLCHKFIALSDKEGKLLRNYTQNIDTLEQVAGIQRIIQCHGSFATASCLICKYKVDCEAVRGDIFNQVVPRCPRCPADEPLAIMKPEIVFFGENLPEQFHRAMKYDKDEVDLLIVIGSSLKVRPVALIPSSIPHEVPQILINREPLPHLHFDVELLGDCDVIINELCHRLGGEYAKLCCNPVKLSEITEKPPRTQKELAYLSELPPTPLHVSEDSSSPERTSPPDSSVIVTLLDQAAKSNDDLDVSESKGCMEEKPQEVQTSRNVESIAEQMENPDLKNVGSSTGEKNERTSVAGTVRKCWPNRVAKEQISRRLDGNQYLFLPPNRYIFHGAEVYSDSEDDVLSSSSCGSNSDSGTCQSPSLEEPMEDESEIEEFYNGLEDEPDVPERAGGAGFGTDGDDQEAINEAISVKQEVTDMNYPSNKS
Chain of MMP12 (P39900 106-470, species assumed): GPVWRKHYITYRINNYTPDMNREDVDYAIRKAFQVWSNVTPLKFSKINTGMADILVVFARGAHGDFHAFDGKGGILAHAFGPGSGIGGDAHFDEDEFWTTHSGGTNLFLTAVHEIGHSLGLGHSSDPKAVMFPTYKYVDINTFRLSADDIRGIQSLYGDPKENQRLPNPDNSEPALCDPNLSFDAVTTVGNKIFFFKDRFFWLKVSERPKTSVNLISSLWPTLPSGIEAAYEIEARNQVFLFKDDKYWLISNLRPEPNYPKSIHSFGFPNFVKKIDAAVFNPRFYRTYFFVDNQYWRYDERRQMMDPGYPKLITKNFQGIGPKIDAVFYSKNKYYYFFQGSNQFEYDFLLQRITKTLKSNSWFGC
Chain of SIRT2 (Q8IXJ6 whole entry, species assumed): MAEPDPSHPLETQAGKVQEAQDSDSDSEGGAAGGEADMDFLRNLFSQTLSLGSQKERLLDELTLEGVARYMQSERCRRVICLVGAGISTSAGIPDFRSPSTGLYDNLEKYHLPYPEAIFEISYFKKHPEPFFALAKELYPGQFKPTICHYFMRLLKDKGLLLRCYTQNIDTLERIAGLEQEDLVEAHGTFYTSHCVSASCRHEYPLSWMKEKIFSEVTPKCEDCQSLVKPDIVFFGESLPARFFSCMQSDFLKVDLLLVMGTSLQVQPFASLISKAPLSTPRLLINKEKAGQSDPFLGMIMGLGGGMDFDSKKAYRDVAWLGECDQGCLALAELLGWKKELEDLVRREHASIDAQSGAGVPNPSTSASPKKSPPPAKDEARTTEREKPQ
Chain of DPP4 (P27487 whole entry, species assumed): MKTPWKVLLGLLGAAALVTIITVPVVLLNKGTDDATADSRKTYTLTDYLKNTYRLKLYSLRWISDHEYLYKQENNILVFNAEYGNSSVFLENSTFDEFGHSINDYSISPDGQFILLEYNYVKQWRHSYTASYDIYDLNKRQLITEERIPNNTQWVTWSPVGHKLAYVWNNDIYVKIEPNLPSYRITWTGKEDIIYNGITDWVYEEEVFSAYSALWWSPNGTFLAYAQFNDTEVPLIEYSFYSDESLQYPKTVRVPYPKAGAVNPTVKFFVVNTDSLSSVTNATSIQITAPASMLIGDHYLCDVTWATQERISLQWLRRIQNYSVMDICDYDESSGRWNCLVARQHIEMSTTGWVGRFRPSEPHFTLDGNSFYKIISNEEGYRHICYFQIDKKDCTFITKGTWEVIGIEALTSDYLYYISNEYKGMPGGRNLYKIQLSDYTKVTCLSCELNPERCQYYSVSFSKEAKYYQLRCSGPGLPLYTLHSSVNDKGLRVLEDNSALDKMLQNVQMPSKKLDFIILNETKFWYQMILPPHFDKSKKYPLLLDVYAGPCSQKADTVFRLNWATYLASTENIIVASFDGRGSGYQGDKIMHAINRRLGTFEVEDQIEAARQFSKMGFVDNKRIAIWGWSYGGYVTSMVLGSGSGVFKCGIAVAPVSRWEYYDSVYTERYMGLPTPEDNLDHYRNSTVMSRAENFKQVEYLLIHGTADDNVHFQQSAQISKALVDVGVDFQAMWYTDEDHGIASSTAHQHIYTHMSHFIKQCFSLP
Chain of Braf (P15056 whole entry, species assumed): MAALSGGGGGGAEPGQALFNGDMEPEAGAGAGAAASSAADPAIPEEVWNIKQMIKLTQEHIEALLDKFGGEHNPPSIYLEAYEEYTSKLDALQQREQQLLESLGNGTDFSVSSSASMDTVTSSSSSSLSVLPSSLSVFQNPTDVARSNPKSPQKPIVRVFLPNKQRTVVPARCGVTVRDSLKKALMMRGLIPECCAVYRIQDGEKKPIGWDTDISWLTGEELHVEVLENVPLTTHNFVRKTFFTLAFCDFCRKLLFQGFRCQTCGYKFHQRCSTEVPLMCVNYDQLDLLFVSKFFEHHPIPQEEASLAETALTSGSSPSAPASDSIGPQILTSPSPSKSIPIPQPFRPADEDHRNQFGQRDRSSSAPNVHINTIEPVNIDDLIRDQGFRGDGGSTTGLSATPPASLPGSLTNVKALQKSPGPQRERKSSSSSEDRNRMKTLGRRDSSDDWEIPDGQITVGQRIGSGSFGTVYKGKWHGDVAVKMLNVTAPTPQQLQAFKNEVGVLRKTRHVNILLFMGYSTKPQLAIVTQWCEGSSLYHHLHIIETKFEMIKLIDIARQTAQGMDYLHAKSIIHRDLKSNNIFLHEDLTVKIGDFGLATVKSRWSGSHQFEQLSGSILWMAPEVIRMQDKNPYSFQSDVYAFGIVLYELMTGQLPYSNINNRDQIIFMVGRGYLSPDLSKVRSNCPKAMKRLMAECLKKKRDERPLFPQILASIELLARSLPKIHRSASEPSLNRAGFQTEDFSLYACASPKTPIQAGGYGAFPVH
Chain of SIRT3 (Q9NTG7 whole entry, species assumed): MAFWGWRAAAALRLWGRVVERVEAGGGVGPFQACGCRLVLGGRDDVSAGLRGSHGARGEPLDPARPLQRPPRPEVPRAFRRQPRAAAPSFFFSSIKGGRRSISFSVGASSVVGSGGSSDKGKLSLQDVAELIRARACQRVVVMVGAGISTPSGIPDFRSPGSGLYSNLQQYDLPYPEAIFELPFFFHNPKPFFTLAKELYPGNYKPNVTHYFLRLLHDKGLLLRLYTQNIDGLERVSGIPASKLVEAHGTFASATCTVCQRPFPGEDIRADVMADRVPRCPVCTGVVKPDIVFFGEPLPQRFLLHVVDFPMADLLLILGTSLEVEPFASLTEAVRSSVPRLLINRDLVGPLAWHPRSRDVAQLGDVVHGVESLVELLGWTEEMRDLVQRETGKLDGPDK

O=C(/C=C/c1cccc(S(=O)(=O)Nc2ccccc2)c1)NO [Belinostat]
t1/2 [1]: 1.6 h

CC(C)C[C@H](NC(=O)[C@H](Cc1ccccc1)NC(=O)c1cnccn1)B(O)O [PS341]
body weight versus control (MM.1S xenograft): no significant weight loss
body weight versus control (RPMI-8226 xenograft): no significant weight loss

Cc1[nH]c2ccccc2c1CCNCc1ccc(/C=C/C(=O)NO)cc1 [Panobinostat]
IC50 (hERG; read-out: IC50 for hERG inhibition): 3100 nM

O=C(CCCCCCC(=O)Nc1ccccc1)NO [SAHA]
inhibition at 200 µM (SIRT1): 7.6 ± 8.8%
inhibition at 200 µM (SIRT2): 43.6 ± 0.8%
inhibition at 200 µM (SIRT3): 27.8 ± 9.2%
T/C (%) (MM.1S xenograft; [3]): 49.40%
body weight versus control (MM.1S xenograft): no significant weight loss
T/C (%) (RPMI-8226 xenograft; [3]): 36.37%
body weight versus control (RPMI-8226 xenograft): no significant weight loss
acetylated α-tubulin and acetylated histone H3 levels in tumor tissues (MM.1S tumor tissues): significant enhancement
elimination half-life [2]: short
oral bioavailability [2]: low
serum clearance [2]: high
inhibition at 200 µM (MMP12): 61.1 ± 3.3%
inhibition at 200 µM (DPP4): 11.3 ± 5.4%
inhibition at 200 µM (Caspase3): 3.9 ± 2.5%
inhibition at 200 µM (PKCepsilon): 0.2 ± 5.7%
inhibition at 200 µM (AuroraA): 18.8 ± 7.8%
inhibition at 200 µM (Braf): 17.6 ± 9.8%
inhibition at 200 µM (Syk): 13.7 ± 1.8%
inhibition at 200 µM (PTP1B): 9.3 ± 6.2%

CCCCc1nc2cc(/C=C/C(=O)NO)ccc2n1CCN(CC)CC [SB939, (2E)-3-{2-butyl-1-[2-(diethylamino)ethyl]-1H-benzimidazol-5-yl}-N-hydroxyacrylamide]
concentration up to which no binding to hERG channels (hERG): > 10 µM
